Reference: patent publication US20240368668A1, “SUBSTRATES AND BIOMARKERS OF ADAMTS7” (The Broad Institute, Inc., priority 2021, published 2024)
Square brackets hold non-standard residues; d marks the D form. Ends that are not written are not given here. Met(O) = CS(=O)CC[C@H](N)C(=O)O

System: mouse ADAMTS7
Experiment: TMT10 TAILS N-terminomics, SMC2 experiment (process replicates, trypsin/AspN digest)
Assay type: cell-based
Procedure, shortened: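 Full-length mouse ADAMTS7 (WT or E373Q mutant, C-terminal 3xFLAG) or luciferase was transduced via adenovirus, 50 MOI, into HCA-SMC (SMC1, SMC2) or HUVEC. SMC1: pooled media, technical triplicates 400 ug; SMC2: process triplicates 300 ug; HUVEC: process triplicates 200 ug, bFGF2 10 ng/ml.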

[1] = SMC2_TAILS HC, log fold change of N-terminal peptide, Ad-mADAMTS7 WT over EQ
[2] = log fold change, ADAMTS7 WT over EQ
[3] = SMC2_TAILS HC, log fold change, mWT over mEQ

Substance | logFC.mWT.over.mEQ [1] | logFC.mWT.over.mEQ [2] | logFC.mWT.over.mEQ [3]
LTBP3_103 (LTGSGFR; listed as Homo sapiens) | 5.72 |  | 
THBS2_290 (LSENLKR; listed as Homo sapiens) |  | 4.05 | 
MAP4_815 (AVASTGPSSR; listed as Homo sapiens) | 1.70 |  | 
QSOX1_210 (HKGVAVR; listed as Homo sapiens) | 1.69 |  | 
COL1A2_960 (AGAPGPHGPVGPAGKHGNR; listed as Homo sapiens) |  |  | 2.87
VIM_314 (QESTEYR; listed as Homo sapiens) | 3.28 | 2.60 | 
NBEA_1892 (LEKVAPLLR; listed as Homo sapiens) | 2.12 |  | 
MMP1_185 (FQPGPGIGG; listed as Homo sapiens) | 1.46 |  | 
COL4A2_71 (YNGPPGLQGFPGLQGR; listed as Homo sapiens) |  |  | 1.70
PAK4_141 (HSEAGGGSG; listed as Homo sapiens) | 1.78 |  | 
MMP1_100 (FVLTEGNPR; listed as Homo sapiens) | 2.39 |  | 
VIM_333 (LKGTNESLER; listed as Homo sapiens) | 3.84 | 4.39 | 
COL1A2_80 (QYDGKGVGLGPGPMGLMGPR; listed as Homo sapiens) |  |  | 1.15
SPOCK1_27 (LAGGAGPNHGNFL; listed as Homo sapiens) | 2.69 |  | 
COL1A2_305 (LTGAKGAAGLPGVAGAPGLPGPR; listed as Homo sapiens) |  |  | 1.92
COL1A2_630 (VGTAGPSGPSGLPGER; listed as Homo sapiens) |  |  | 2.33
LOXL1_218 (AVASAGVIYPYQPR; listed as Homo sapiens) | 1.83 |  | 
NID2_291 (HSSVPLGR; listed as Homo sapiens) | 3.16 |  | 
LTBP2_79 (VAGLQPVER; listed as Homo sapiens) | 1.62 |  | 
LTBP2_250 (SAAGEGTLAR; listed as Homo sapiens) | 2.70 |  | 
VAT1_42 (AASPPLLR; listed as Homo sapiens) | 2.95 |  | 
LOXL2_45 (HQPQAPANVAKIQLR; listed as Homo sapiens) | 2.51 |  | 

Substance | logFC.mWT.over.mEQ [1] | logFC.mWT.over.mEQ [2] | logFC.mWT.over.mEQ [3]
TNS1_236 (QEGLAGYQR; listed as Homo sapiens) | 2.08 |  | 
MAP4_816 (VASTGPSSR; listed as Homo sapiens) | 2.51 |  | 
COL1A2_866 (LLGAPGILGLPGSR; listed as Homo sapiens) |  |  | 3.22
TTN_5975 (VKEPPVEFTKPL; listed as Homo sapiens) | 3.34 |  | 
COL1A2_270 (VGNAGPAGPAGPR; listed as Homo sapiens) |  |  | 3.47
TNPO2_744 (VQ[Met(O)]VLNNLVEII[code n]RP[code n]TPKTLLE; listed as Homo sapiens) | 4.02 |  | 
NID2_951 (YAYPGAR; listed as Homo sapiens) | 2.80 |  | 
PLIN3_75 (VSGAQPILSKL; listed as Homo sapiens) | 2.25 |  | 
LTBP2_290 (QHVGLSR; listed as Homo sapiens) | 3.05 |  | 
SERBP1_56 (QAAAQTNSNAAGKQLR; listed as Homo sapiens) |  | 4.06 | 
LTBP3_208 (FLVPLGPGQISA; listed as Homo sapiens) | 1.53 |  | 
SHC2_267 (VAKDPINQRACHIL; listed as Homo sapiens) | 1.85 |  | 
LTBP2_502 (LVENSVETRPPPWLPASPGHSLW; listed as Homo sapiens) | 2.85 |  | 
PTPRF_1859 (MRYEGVVDMFQTVKTLR; listed as Homo sapiens) | 2.59 |  | 
SRGN_59 (LLPGESNKIPR; listed as Homo sapiens) | 3.66 | 4.33 | 
COL1A2_1028 (LQGLPGIAGHHGDQGAPGSVGPAGPR; listed as Homo sapiens) |  |  | 1.98
POSTN_727 (IITGPEIKYTR; listed as Homo sapiens) | 2.60 |  | 
COL18A1_1505 (LQPPVVQLHDSNPYPR; listed as Homo sapiens) |  |  | 1.47
TRGC2_86 (HRCIVRHENNK; listed as Homo sapiens) | 2.93 |  | 
NID1_360 (FHQQHPQVI; listed as Homo sapiens) | 2.69 |  | 
PPP1R18_295 (LSETLTR; listed as Homo sapiens) | 2.32 |  | 
